Data on two compounds can be found in ChEMBL document CHEMBL1944593, “Heteroaromatic-aminomethyl quinolones: potent and selective iNOS inhibitors” (Bioorg Med Chem Lett, 2012).

For one data set, the species on record is Homo sapiens. The experiment in a line: Selectivity ratio of IC50 for human eNOS to IC50 for human iNOS.
A further data set has as its target Nitric oxide synthase 1 (Homo sapiens, UniProt P29475). The experiment in a line: Inhibition of human nNOS expressed in HEK293 cells assessed as NO production by 2,3-diaminonapthalene-based fluorescence assay. Type of data set: cell-based.
Data set [1] is described as follows: Cmax in mouse at 10 mg/kg, po. As to conditions: in vivo. It is filed as ADME, organism-based. Also on record: dose 10 mg/kg, route oral.
Data set [2] can be described thus: Oral bioavailability in mouse at 10 mg/kg. It is filed as ADME, organism-based. As to conditions: in vivo.
Data set [3] is described as follows: Volume of distribution at steady state in mouse. It is filed as ADME, organism-based. The following applies: in vivo, read-out: Vdss.
A short description of data set [4]: AUC in mouse at 10 mg/kg, po. It is filed as ADME, organism-based. Also on record: dose 10 mg/kg, route oral. The following applies: plasma.
For a further data set, the target named is T1, Nitric oxide synthase 3 (Homo sapiens, UniProt P29474).
T1 sequence (P29474 whole entry): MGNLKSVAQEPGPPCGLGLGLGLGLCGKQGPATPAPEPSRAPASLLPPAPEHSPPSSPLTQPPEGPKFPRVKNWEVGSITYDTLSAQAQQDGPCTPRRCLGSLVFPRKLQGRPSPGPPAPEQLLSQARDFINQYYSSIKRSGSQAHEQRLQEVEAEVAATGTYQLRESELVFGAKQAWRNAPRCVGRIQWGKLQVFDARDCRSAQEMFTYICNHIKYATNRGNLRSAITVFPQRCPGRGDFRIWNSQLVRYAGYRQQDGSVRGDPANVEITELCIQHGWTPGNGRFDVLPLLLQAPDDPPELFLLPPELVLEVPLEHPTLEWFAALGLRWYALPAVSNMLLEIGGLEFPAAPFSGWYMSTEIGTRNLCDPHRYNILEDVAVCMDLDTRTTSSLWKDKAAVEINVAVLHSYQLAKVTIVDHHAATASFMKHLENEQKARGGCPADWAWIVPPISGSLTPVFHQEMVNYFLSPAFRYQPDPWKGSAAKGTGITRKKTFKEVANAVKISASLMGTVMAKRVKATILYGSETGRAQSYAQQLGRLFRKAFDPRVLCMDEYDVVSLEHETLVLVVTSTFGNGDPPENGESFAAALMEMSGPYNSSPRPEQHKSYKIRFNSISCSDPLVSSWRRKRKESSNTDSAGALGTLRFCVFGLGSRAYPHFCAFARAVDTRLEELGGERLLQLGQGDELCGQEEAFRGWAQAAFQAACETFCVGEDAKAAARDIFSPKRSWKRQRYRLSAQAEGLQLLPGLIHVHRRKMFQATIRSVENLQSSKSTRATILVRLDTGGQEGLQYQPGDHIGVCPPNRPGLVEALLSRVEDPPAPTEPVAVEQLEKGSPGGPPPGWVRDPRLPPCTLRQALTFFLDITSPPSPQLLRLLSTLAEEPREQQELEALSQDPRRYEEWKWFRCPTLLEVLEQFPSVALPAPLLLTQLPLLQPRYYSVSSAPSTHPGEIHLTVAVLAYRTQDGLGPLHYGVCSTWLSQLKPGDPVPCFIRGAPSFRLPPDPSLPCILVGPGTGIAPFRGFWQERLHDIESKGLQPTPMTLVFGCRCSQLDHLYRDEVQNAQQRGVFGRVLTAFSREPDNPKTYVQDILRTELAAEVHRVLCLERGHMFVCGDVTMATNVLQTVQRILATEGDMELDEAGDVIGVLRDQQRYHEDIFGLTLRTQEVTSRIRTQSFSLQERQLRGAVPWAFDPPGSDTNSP
The experiment in a line: Inhibition of human eNOS expressed in HEK293 cells assessed as NO production by 2,3-diaminonapthalene-based fluorescence assay. It is filed as cell-based.

Data set [5] is described as follows: Half life in mouse. As to conditions: in vivo. Type of data set: ADME, organism-based.
The test system of data set [6] is Mus musculus. In words: Antiinflammatory activity in mouse assessed as reduction in LPS-induced nitatre level in plasma at 30 mg/kg, po. Also on record: scale not given: the % may be the effect or the level left. It is filed as functional.
The target in data set [7] is Nitric oxide synthase, inducible (Homo sapiens, UniProt P35228). The experiment in a line: Inhibition of human iNOS expressed in HEK293 cells assessed as NO production by 2,3-diaminonapthalene-based fluorescence assay. Type of data set: cell-based.
Chain of Nitric oxide synthase, inducible (Homo sapiens, UniProt P35228) (P35228 whole entry): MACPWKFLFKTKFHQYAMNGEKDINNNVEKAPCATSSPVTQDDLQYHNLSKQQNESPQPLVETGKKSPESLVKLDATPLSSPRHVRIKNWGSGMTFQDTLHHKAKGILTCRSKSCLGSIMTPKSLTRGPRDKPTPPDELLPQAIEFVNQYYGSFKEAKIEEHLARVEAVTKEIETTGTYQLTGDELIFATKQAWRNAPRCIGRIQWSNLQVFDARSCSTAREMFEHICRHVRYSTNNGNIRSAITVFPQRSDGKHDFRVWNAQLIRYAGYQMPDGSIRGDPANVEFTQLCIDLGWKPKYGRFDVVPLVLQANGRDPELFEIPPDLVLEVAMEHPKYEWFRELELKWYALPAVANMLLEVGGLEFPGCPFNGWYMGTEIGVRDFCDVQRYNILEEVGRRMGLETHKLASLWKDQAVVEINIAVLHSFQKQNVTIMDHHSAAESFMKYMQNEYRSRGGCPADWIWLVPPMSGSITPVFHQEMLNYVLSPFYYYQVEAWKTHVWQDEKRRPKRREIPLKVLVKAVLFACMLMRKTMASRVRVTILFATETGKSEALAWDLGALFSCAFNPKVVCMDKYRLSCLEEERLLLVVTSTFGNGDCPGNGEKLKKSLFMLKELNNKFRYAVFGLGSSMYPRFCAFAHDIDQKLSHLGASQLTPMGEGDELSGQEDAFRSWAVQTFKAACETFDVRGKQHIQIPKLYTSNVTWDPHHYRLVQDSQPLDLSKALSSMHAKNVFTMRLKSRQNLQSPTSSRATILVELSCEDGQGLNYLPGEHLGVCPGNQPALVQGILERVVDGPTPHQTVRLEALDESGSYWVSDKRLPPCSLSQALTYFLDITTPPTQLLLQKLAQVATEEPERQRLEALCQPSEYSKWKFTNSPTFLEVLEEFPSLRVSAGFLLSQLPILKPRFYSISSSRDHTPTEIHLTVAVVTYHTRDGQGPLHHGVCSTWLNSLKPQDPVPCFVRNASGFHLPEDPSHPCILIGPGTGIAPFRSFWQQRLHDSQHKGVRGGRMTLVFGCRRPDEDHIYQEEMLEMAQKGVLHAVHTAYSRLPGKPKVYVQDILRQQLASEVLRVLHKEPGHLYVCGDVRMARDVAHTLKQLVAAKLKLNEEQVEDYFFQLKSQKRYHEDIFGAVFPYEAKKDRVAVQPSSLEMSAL
Data set [8] has as its target Nitric oxide sythases; iNOS & nNOS (Homo sapiens) (UniProt P29475+P35228). In words: Selectivity ratio of IC50 for human nNOS to IC50 for human iNOS.
Data set [9] in a line: Plasma clearance in mouse. Type of data set: ADME, organism-based.
Data set [10] deals with Mus musculus. The experiment in a line: Antiinflammatory activity in po dosed mouse assessed as reduction in LPS-induced nitatre level in plasma. It is filed as functional.
Data set [11] concerns the target T2, Nitric oxide synthase, inducible (Mus musculus, UniProt P29477).
T2 sequence (P29477 whole entry): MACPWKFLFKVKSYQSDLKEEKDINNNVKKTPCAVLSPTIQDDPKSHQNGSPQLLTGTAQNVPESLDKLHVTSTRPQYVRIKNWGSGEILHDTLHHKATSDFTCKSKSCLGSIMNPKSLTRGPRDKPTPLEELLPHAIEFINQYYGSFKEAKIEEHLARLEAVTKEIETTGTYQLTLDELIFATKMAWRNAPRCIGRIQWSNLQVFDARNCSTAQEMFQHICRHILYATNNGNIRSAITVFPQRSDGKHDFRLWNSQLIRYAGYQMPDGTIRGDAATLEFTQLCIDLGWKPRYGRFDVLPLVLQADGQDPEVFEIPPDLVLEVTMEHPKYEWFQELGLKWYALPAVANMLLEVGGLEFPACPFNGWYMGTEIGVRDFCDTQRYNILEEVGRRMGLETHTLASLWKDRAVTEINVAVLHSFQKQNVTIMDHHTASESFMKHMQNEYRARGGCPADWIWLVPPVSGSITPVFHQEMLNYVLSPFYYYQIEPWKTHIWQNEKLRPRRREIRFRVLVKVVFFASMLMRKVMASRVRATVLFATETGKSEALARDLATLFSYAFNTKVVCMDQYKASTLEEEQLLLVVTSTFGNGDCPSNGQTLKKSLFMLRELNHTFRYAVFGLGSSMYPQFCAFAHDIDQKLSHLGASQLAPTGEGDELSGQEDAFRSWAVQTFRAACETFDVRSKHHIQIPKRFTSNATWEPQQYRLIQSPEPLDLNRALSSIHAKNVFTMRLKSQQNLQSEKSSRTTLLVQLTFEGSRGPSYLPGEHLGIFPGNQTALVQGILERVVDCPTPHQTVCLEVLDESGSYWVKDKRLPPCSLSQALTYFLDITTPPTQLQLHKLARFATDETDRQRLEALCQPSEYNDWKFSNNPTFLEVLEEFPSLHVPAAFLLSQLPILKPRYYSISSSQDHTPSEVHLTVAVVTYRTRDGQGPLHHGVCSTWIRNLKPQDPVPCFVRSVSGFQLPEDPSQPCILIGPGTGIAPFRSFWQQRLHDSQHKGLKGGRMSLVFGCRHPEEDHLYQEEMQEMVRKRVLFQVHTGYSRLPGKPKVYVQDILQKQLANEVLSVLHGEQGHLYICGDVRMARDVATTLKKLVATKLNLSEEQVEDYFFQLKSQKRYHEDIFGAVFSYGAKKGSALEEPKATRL
The experiment in a line: Inhibition of mouse iNOS.

Chain of Nitric oxide synthase 1 (P29475 whole entry): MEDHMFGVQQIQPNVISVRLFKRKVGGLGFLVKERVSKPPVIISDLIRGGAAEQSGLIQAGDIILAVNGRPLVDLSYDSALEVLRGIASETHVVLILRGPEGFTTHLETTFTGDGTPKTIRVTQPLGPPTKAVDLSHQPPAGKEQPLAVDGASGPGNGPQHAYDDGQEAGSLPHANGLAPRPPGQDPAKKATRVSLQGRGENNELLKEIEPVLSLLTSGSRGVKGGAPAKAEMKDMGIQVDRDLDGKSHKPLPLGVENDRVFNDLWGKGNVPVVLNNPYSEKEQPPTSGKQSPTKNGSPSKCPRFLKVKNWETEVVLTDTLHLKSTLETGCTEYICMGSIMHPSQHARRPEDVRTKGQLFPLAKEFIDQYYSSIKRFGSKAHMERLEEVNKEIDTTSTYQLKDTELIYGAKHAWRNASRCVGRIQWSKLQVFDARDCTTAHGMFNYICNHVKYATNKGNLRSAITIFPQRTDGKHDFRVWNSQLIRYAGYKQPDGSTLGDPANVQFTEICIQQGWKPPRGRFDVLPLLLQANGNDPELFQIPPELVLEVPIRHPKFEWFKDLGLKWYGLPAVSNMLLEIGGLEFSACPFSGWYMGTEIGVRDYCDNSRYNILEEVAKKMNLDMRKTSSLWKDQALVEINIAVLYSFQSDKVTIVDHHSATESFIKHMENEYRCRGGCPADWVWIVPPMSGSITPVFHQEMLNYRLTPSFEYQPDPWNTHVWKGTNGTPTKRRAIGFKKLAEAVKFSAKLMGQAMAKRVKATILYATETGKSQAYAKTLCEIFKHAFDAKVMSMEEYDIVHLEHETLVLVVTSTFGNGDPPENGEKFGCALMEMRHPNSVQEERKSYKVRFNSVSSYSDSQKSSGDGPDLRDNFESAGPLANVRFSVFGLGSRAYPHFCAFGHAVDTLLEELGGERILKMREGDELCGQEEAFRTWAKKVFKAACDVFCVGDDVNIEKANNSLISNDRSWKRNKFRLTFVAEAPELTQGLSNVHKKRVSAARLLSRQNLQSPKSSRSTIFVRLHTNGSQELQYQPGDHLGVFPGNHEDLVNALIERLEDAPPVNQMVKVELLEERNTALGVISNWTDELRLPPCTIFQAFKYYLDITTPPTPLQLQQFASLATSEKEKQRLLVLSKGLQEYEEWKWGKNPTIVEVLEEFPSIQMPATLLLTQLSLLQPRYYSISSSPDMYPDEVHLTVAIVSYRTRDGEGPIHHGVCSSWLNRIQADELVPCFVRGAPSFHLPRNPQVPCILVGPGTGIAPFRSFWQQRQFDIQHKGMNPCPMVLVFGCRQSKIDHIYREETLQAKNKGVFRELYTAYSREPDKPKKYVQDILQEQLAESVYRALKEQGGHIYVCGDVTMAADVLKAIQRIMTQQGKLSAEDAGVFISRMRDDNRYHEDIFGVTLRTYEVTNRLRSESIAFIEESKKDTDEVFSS
Chain of Nitric oxide sythases; iNOS & nNOS (Homo sapiens) (P29475 whole entry, looked up): as the sequence (P29475 whole entry) above
Chain of Nitric oxide sythases; iNOS & nNOS (Homo sapiens) (P35228 whole entry, looked up): as the sequence (P35228 whole entry) above

For the compound `O=c1cc(CN(c2cccc(Cl)c2)c2cnccn2)c2ccc(F)c(F)c2[nH]1`, the Ratio IC50 in the data set listed under Homo sapiens was 300; in [8], 2. The IC50 on Nitric oxide synthase 1 came out at 12 nM; at Nitric oxide synthase 3, 1500 nM; in [7], 5 nM; in data set [11], 5 nM. This compound also registered a Cmax in data set [1] of 45 ng/mL. Further, the bioavailability in data set [2] was 3%. The Vd in [3] was 1.7 L/kg. For the same compound, the AUC in data set [4] worked out at 120 ng·h/mL. This compound showed a half-life in data set [5] of 2.1 h. Also, in the data set on Mus musculus [6], the Activity is listed as 80%. Further, in data set [9], the clearance was 34 mL/min/kg. Besides, the ED50 in the data set on Mus musculus [10] was 3.6 mg/kg.
With `O=c1cc(Cn2c(C3CCC3)nc3nccnc32)c2ccc(F)c(F)c2[nH]1`, the Vd in [3] worked out at 0.4 L/kg. In data set [4], the AUC is 25000 ng·h/mL. The IC50 in [7] was 91 nM; in data set [11], 500 nM. In the data set with Mus musculus [10], the ED50 was found to be 1 mg/kg.

As usually defined, the IC50 is the midpoint of a concentration-inhibition curve. Usually Cmax stands for the peak of the concentration-time curve. The bioavailability is the share of a dose that reaches the circulation, judged against a reference dose that is usually intravenous. A word on the AUC: it is the area under the concentration-time curve, a measure of exposure. By half-life is commonly meant how long it takes for the measured level to halve. The term clearance denotes a measure of how efficiently the substance is removed, as volume per time. Broadly, the ED50 is the dose at which the effect has come halfway, by size or by number of responders.
